The values below come from publication PMC5118688 (Scientific Reports, 2016).

In general, IC50 refers to the concentration needed to halve the response being measured.

Assay [1] has as its system mAb3C9. Nature of the assay: mimotope-based dcELISA (mAb3C9 and M20-GST-BAD/SA-HRP competitor). The assay is classed as binding, mouse. Conditions: for CR (%): M20-GST-BAD, (IC50 of parathion-methyl/IC50 of pesticide) × 100. Here is the method: To develop a mimotope-based dcELISA, the biotinylated mimotope fusion protein was firstly assembled with streptavidin-HRP conjugate (SA-HRP) utilized the high affinity of biotin and streptavidin. The assembly process was just mixing a certain amount of biotinylated mimotope fusion protein with SA-HRP and incubating them at 4 °C overnight before use as an HRP-labeled competitor.
An innovative mimotope-based dcELISA was developed and performed as below. […] TMB solution (100 μL/well) was added and incubated for 15 min at 37 °C.
The optimal condition for mimotope-based dcELISA was optimized as chemosynthesized antigen-based dcELISA. The selectivity and sensitivity of the developed mimotope-based dcELISA for the 24 OPs were also determined under the optimum condition.

In a further assay the test system is mAb4D11. The assay can be described thus: optimized mAb4D11-based dcELISA.
The subject of assay [2] is mAb3C9. Nature of the assay: optimized chemosynthesized antigen-based dcELISA (mAb3C9 and hapten 6-OVA). As to conditions: for CR (%): Hapten 6-OVA, (IC50 of parathion-methyl/IC50 of pesticide) × 100.
Experimental: (§1) The dcELISA procedure was performed as below. First, the plate (Costar, Corning Inc., New York, USA) was coated with coating antigen (100 μL/well in 1 × PBS) for 1 h at 37 °C. Then, the wells were washed four times with PBST (1 × PBS with 0.05% (v/v) Tween-20) and blocked with 2% skim milk (200 μL/well) for 1 h at 37 °C. After washing four times, 50 μL analyte in MeOH-water solution and 50 μL mAb-HRP in PBS were added. The plate was incubated for 1 h at 37 °C and then washed four times before adding TMB solution (100 μL/well). After incubation for 15 min at 37 °C, 50 μL/well of H2SO4 (2 mol/L) was added to stop the reaction, and the absorbance was recorded at 450 nm using the Model 680 plate reader (Bio-Rad, USA).
(§2) 18 kinds of O,O-dimethyl OPs and 6 kinds of O,O-diethyl OPs were purchased from National Standards of China and used for the selectivity and sensitivity study using the optimized dcELISA procedure. […] The IC50 value and detection limit of each OP were calculated. The CR value, which was used to evaluate the selectivity of the method, was calculated using the following equation:
For assay [3] the following is noted: ref Hua et al. 11; cited from earlier work.
The mark [4] stands for this setting: mAb3C9, coating antigen Hapten 6-OVA.

Values after ≈ are worked out from the molar mass of the structure shown. Read-outs that look alike come from different tables or passages of the source.

Experimental for mAb4D11: as §1, §2

Take `CCOP(=S)(OCC)SCn1nnc2ccccc2c1=O` [Azinphos-ethyl]: the “CR (%)” value is recorded as 4.7% in the assay on mAb3C9 [1], less than 0.3% with mAb4D11 (mAb4D11-based dcELISA) and 4.9% in the assay on mAb3C9 [2]. Besides, the “LOD (IC10)” value was found to be 0.0264 µg/mL with mAb3C9 [1] (mAb3C9, M20-GST-BAD) and 0.0216 µg/mL with mAb3C9 [2] (mAb3C9, Hapten 6-OVA). Further, the “IC50 ± SD” value with mAb3C9 [1] (mAb3C9, competitor M20-GST-BAD) came out at 0.1074 ± 0.0032 µg/mL (≈ 0.311 µM); in the assay with mAb3C9 [2] (setting [4]), 0.0953 ± 0.0042 µg/mL (≈ 0.276 µM). The compound also yielded an IC50 in the assay on mAb4D11 (mAb4D11-based dcELISA) of more than 5 µg/mL.
For `COP(=S)(OC)SCn1nnc2ccccc2c1=O` [Azinphos-methyl], the IC50 in assay [3] is more than 100 µg/mL; in the assay with mAb4D11 (mAb4D11-based dcELISA), more than 5 µg/mL. The “CR (%)” value in the assay on mAb3C9 [1] is given as 290.8%; with mAb4D11 (mAb4D11-based dcELISA), less than 0.3%; in the assay with mAb3C9 [2], 306.6%. Moreover, the “LOD (IC10)” value with mAb3C9 [1] (mAb3C9, M20-GST-BAD) turned out to be 0.0004 µg/mL; in the assay on mAb3C9 [2] (mAb3C9, Hapten 6-OVA), 0.0004 µg/mL. The “IC50 ± SD” value is 0.0017 ± 0.0001 µg/mL (≈ 0.00536 µM) in the assay on mAb3C9 [1] (mAb3C9, competitor M20-GST-BAD) and 0.0015 ± 0.0001 µg/mL (≈ 0.00473 µM) with mAb3C9 [2] (setting [4]).
In the case of `COP(=S)(OC)Oc1cc(Cl)c(Br)cc1Cl` [Bromophos-methyl], the “CR (%)” value in the assay on mAb3C9 [1] worked out at 6.2%; in the assay on mAb4D11 (mAb4D11-based dcELISA), 11.6%; with mAb3C9 [2], 6.2%. In addition, the “LOD (IC10)” value worked out at 0.0194 µg/mL with mAb3C9 [1] (mAb3C9, M20-GST-BAD) and 0.0195 µg/mL in the assay on mAb3C9 [2] (mAb3C9, Hapten 6-OVA). For the same compound, the “IC50 ± SD” value is 0.0822 ± 0.0024 µg/mL (≈ 0.225 µM) in the assay with mAb3C9 [1] (mAb3C9, competitor M20-GST-BAD) and 0.0755 ± 0.0041 µg/mL (≈ 0.206 µM) with mAb3C9 [2] (setting [4]). This compound returned an IC50 in the assay on mAb4D11 (mAb4D11-based dcELISA) of 0.1246 µg/mL (≈ 0.34 µM). For the same compound, the LOD with mAb4D11 (mAb4D11-based dcELISA) is on record as 31.4 ng/mL.
As for `COP(=S)(OC)Oc1ccc(C#N)cc1` [Cyanophos], the IC50 in assay [3] was 0.0203 µg/mL (≈ 0.0835 µM); with mAb4D11 (mAb4D11-based dcELISA) it was 0.0176 µg/mL (≈ 0.0724 µM). Also, the “CR (%)” value in the assay on mAb3C9 [1] was 146.2%; in the assay with mAb4D11 (mAb4D11-based dcELISA), 82.5%; with mAb3C9 [2], 152.8%. Moreover, the “LOD (IC10)” value in the assay on mAb3C9 [1] (mAb3C9, M20-GST-BAD) stood at 0.0007 µg/mL; in the assay with mAb3C9 [2] (mAb3C9, Hapten 6-OVA), 0.0006 µg/mL. In addition, the “IC50 ± SD” value with mAb3C9 [1] (mAb3C9, competitor M20-GST-BAD) worked out at 0.0035 ± 0.0001 µg/mL (≈ 0.0144 µM); in the assay with mAb3C9 [2] (setting [4]) it was 0.0031 ± 0.0002 µg/mL (≈ 0.0127 µM). Moreover, the LOD in the assay on mAb4D11 (mAb4D11-based dcELISA) stood at 2.3 ng/mL.
On to `CCOP(=S)(OCC)Oc1cc(C)nc(C(C)C)n1` [Diazinon], for which the “CR (%)” value turned out to be 0.2% in the assay with mAb3C9 [1], 5.0% with mAb4D11 (mAb4D11-based dcELISA) and 0.3% in the assay with mAb3C9 [2]. For the same compound, the “LOD (IC10)” value in the assay with mAb3C9 [1] (mAb3C9, M20-GST-BAD) was 0.4123 µg/mL; with mAb3C9 [2] (mAb3C9, Hapten 6-OVA) it was 0.3917 µg/mL. The “IC50 ± SD” value with mAb3C9 [1] (mAb3C9, competitor M20-GST-BAD) was 2.0648 ± 0.0417 µg/mL (≈ 6.78 µM); in the assay on mAb3C9 [2] (setting [4]) it was 1.8124 ± 0.0461 µg/mL (≈ 5.95 µM). The IC50 with mAb4D11 (mAb4D11-based dcELISA) came to 0.2883 µg/mL (≈ 0.947 µM). Also, in the assay with mAb4D11 (mAb4D11-based dcELISA), the LOD is 73.2 ng/mL.
Regarding `COP(=O)(OC)OC=C(Cl)Cl` [Dichlorvos], the half-maximal inhibitory concentration (IC50) is more than 100 µg/mL in assay [3] and 1.8279 µg/mL (≈ 8.27 µM) in the assay on mAb4D11 (mAb4D11-based dcELISA). Besides, the “CR (%)” value with mAb3C9 [1] is 3.5%; in the assay on mAb4D11 (mAb4D11-based dcELISA), 0.8%; in the assay with mAb3C9 [2], 3.5%. Further, the “LOD (IC10)” value with mAb3C9 [1] (mAb3C9, M20-GST-BAD) is 0.0312 µg/mL; in the assay on mAb3C9 [2] (mAb3C9, Hapten 6-OVA), 0.024 µg/mL. For the same compound, the “IC50 ± SD” value in the assay on mAb3C9 [1] (mAb3C9, competitor M20-GST-BAD) was 0.1454 ± 0.0038 µg/mL (≈ 0.658 µM); in the assay on mAb3C9 [2] (setting [4]), 0.1321 ± 0.0061 µg/mL (≈ 0.598 µM). In the assay with mAb4D11 (mAb4D11-based dcELISA), this compound returned an LOD of 437.2 ng/mL.
As to `CNC(=O)CSP(=S)(OC)OC` [Dimethoate], in the assay on mAb3C9 [1], the “IC50 ± SD” value stood at 0.1893 ± 0.0081 µg/mL (≈ 0.826 µM), the “LOD (IC10)” value amounted to 0.0284 µg/mL and the “CR (%)” value is on record as 2.7%. In the assay with mAb4D11, the “CR (%)” value is reported as less than 0.3% and the IC50 is more than 5 µg/mL. Besides, in the assay with mAb3C9 [2], the “IC50 ± SD” value was 0.1703 ± 0.0073 µg/mL (≈ 0.743 µM), the “LOD (IC10)” value stood at 0.0184 µg/mL and the “CR (%)” value is on record as 2.7%.
As for `CCOP(=S)(Oc1ccc([N+](=O)[O-])cc1)c1ccccc1` (centres unmarked) [EPN], the IC50 in assay [3] is 0.0183 µg/mL (≈ 0.0566 µM).
For `COP(=S)(OC)Oc1ccc(S(=O)(=O)N(C)C)cc1` [Famphur], the values for the IC50 (in assay [3]; in the assay with mAb4D11 (mAb4D11-based dcELISA)) were 58.2157 µg/mL (≈ 179 µM) and 0.3464 µg/mL (≈ 1.06 µM), respectively. Besides, the results for the “CR (%)” value in the assay with mAb3C9 [1], in the assay on mAb4D11 (mAb4D11-based dcELISA) and in the assay on mAb3C9 [2] were 339.6%, 4.2% and 347.8%, respectively. For the same compound, the “LOD (IC10)” value in the assay with mAb3C9 [1] (mAb3C9, M20-GST-BAD) amounted to 0.0004 µg/mL; in the assay on mAb3C9 [2] (mAb3C9, Hapten 6-OVA) it was 0.0003 µg/mL. The “IC50 ± SD” value turned out to be 0.0015 ± 0.0001 µg/mL (≈ 0.00461 µM) in the assay with mAb3C9 [1] (mAb3C9, competitor M20-GST-BAD) and 0.0013 ± 0.0001 µg/mL (≈ 0.004 µM) in the assay with mAb3C9 [2] (setting [4]). The LOD in the assay with mAb4D11 (mAb4D11-based dcELISA) came to 80.3 ng/mL.
Take `COP(=S)(OC)Oc1cc(Cl)c(Cl)cc1Cl` [Fenchlorphos]: the “CR (%)” value stood at 10.1% with mAb3C9 [1], 26.4% in the assay on mAb4D11 (mAb4D11-based dcELISA) and 10.5% in the assay with mAb3C9 [2]. Moreover, the “LOD (IC10)” value with mAb3C9 [1] (mAb3C9, M20-GST-BAD) stood at 0.0093 µg/mL; in the assay on mAb3C9 [2] (mAb3C9, Hapten 6-OVA) it was 0.0074 µg/mL. For the same compound, the “IC50 ± SD” value in the assay with mAb3C9 [1] (mAb3C9, competitor M20-GST-BAD) is 0.0501 ± 0.0021 µg/mL (≈ 0.156 µM); with mAb3C9 [2] (setting [4]) it was 0.0443 ± 0.0022 µg/mL (≈ 0.138 µM). Also, in the assay with mAb4D11 (mAb4D11-based dcELISA), the IC50 turned out to be 0.055 µg/mL (≈ 0.171 µM). The compound further came in with an LOD with mAb4D11 (mAb4D11-based dcELISA) of 13.3 ng/mL.
